According to article PMC10044725, “Antioxidant, Anti-Inflammatory and Anti-Diabetic Activities of Tectona grandis Methanolic Extracts, Fractions, and Isolated Compounds” (Antioxidants, 2023):
Marks after values point to notes of the source that are not given here.

Assays:
α-glucosidase = assay: α-Glucosidase inhibition assay (pNPG); assay type: biochemical; settings: for Inhibitory Rate (%): at a concentration of 50 µM; for IC50: compounds
Method: The inhibitory effect on α-glucosidase was measured according to the previous report method with slight modifications. The 20 mM sample dissolved in DMSO was diluted to 50 μM in PBS, 10 μL sample was mixed with 50 μL of 0.1 μ/mL α-glucosidase solution in 0.1 M phosphate buffer (pH 6.5) in a 96-well microplate and 10 μL PBS was used as a blank control. The mixture was incubated at 37 °C for 10 min before adding 40 µL of 5 mM 4-nitrophenyl-α-D-glucopyranoside to each well. After 30 min of incubation at 37 °C, the reaction was terminated by adding 50 μL of 0.1 M Na2CO3 to this mixture. The released 4-nitrophenol absorbance measurements were carried out using a microplate reader (SpectraMax190, USA) at 405 nm.

[1] = Ferric reducing antioxidant power (FRAP) assay; settings: Trolox equivalent
Method: The FRAP assay was determined in accordance with the instructions for the FRAP kit. The total antioxidant activity values were estimated using the Trolox equivalent antioxidant capacity test. Initially, the detection concentration of methanolic extract and different fractions was 80 μg/mL, and the detection concentration of compounds (1–23) was 50 μM. Then, 190 μL of FRAP working reagent was mixed with 10 μL sample and incubated at room temperature for 20 min. The absorbance was then measured using a microplate reader at 593 nm, and the scavenging activity was calculated according to Equation (3). The blank control group used DMSO to replace the sample. […] The analysis was performed in triplicates, 0.8054, 0.0134 was a constant.

[2] = DPPH free radical scavenging assay; settings: half scavenging concentration; for EC50: isolated compounds, read-out: DPPH Assay SC50
Method: The DPPH free radical scavenging activities of T. grandis methanolic extract, different fractions and its compounds were conducted according to Dr. Yang et al.. […] The absorbance was measured using a microplate reader at 517 nm, and ascorbic acid was used as a positive control. The DPPH scavenging activity was calculated according to the following formula: Scavenging activity (%) = [1 − (A1 − A2)/(A3 − A4)] × 100% (1) where A1 is the OD value of the tested samples, A2 is the OD value of the sample control, A3 is the OD value of the negative control and A4 is the OD value of the blank control. The analysis was performed in triplicates and the results were described as SC50 values.

[3] = ABTS radical cation scavenging assay (Trolox equivalent)
Method: The ABTS radical cation (ABTS•+) scavenging activities were conducted in accordance with the instructions for the ABTS kit. The total antioxidant activity values were estimated using the Trolox equivalent antioxidant capacity test. The detection concentration of methanolic extract and different fractions was 80 μg/mL, and the detection concentration of compounds (1–23) was 50 μM. […] Then, 190 μL of ABTS working reagent was mixed with 10 μL sample and incubated at room temperature for 5 min. The absorbance was then measured using a microplate reader at 734 nm, and the scavenging activity was calculated according to Equation (2). The blank control group used DMSO to replace the sample. […] The analysis was performed in triplicates, 1.424, 0.0012 was a constant.

[4] = methanolic extract and fractions at 80 μg/mL

SMILES: C[C@H]1O[C@H](O[C@H]2[C@H](O)[C@@H](O)[C@@H](O[C@H]3[C@H](O)[C@@H](O)C(O)O[C@@H]3CO)O[C@@H]2CO)[C@H](O)[C@@H](O)[C@@H]1N[C@H]1C=C(CO)[C@@H](O)[C@H](O)[C@H]1O (stereo partly shown) [Acarbose, reference compound]
- Inhibitory Rate (%) (α-glucosidase): 99.53 ± 0.01 ^a %

SMILES: O=C1O[C@H]([C@@H](O)CO)C(O)=C1O [Ascorbic acid, reference compound]
- FRAP Assay ([1]; compounds at 50 μM): 1.01 ± 0.06 ^a mmol Trolox/L
- FRAP Assay [1, 4]: 1.35 ± 0.02 ^b mmol Trolox/L
- EC50 [2]: 13.45 ± 0.02 µM
- DPPH Assay SC50 ([2]; methanolic extract and fractions, ascorbic acid positive control): 3.39 ± 0.98 ^e µg/mL
- ABTS Assay ([3]; compounds at 50 μM): 0.85 ± 0.00 ^a mmol Trolox/L
- ABTS Assay [3, 4]: 0.99 ± 0.00 ^a mmol Trolox/L

SMILES: COc1ccc(-c2cc(=O)c3c(O)cc(O[C@@H]4O[C@H](C(=O)O)[C@@H](O)[C@H](O)[C@H]4O)cc3o2)cc1 [Compound 2, acacetin-7-O-β-glucuronide]
- FRAP Assay ([1]; compounds at 50 μM): 0.03 ± 0.01 ^c mmol Trolox/L
- Inhibitory Rate (%) (α-glucosidase): 31.35 ± 6.46 ^c %
- IC50 (α-glucosidase): > 50 µM
- EC50 [2]: 17.4 ± 1.08 µM
- ABTS Assay ([3]; compounds at 50 μM): 0.92 ± 0.01 ^a mmol Trolox/L

SMILES: O=c1cc(-c2ccc(O)cc2)oc2cc(O)cc(O)c12 [Compound 3, apigenin]
- FRAP Assay ([1]; compounds at 50 μM): 0.01 ± 0.01 ^c mmol Trolox/L
- Inhibitory Rate (%) (α-glucosidase): 29.06 ± 1.86 ^cd %
- IC50 (α-glucosidase): > 50 µM
- EC50 [2]: 5.22 ± 0.19 µM
- ABTS Assay ([3]; compounds at 50 μM): 0.05 ± 0.00 ^d mmol Trolox/L

SMILES: COC(=O)[C@H]1O[C@@H](Oc2cc(O)c3c(=O)cc(-c4ccc(O)cc4)oc3c2)[C@H](O)[C@@H](O)[C@@H]1O [Compound 4, apigenin-7-O-β-D-glucuronide methyl ester]
- FRAP Assay ([1]; compounds at 50 μM): 0.02 ± 0.00 ^c mmol Trolox/L
- Inhibitory Rate (%) (α-glucosidase): 68.54 ± 2.90 ^b %
- IC50 (α-glucosidase): 14.2 ± 0.34 µM
- EC50 [2]: 31.5 ± 1.75 µM
- ABTS Assay ([3]; compounds at 50 μM): 0.21 ± 0.01 ^b mmol Trolox/L

SMILES: COC(=O)[C@H]1O[C@@H](Oc2cc(-c3cc(=O)c4c(O)cc(O)cc4o3)ccc2O)[C@H](O)[C@@H](O)[C@@H]1O [Compound 5, vitegnoside]
- FRAP Assay ([1]; compounds at 50 μM): 1.02 ± 0.01 ^a mmol Trolox/L
- Inhibitory Rate (%) (α-glucosidase): 69.67 ± 2.20 ^b %
- IC50 (α-glucosidase): 19.3 µM
- EC50 [2]: 9.92 ± 0.36 µM
- ABTS Assay ([3]; compounds at 50 μM): 0.92 ± 0.00 ^a mmol Trolox/L

SMILES: O=c1cc(-c2ccc(O)c(O)c2)oc2cc(O)cc(O)c12 [Compound 6, luteolin]
- FRAP Assay ([1]; compounds at 50 μM): 0.37 ± 0.05 ^b mmol Trolox/L
- Inhibitory Rate (%) (α-glucosidase): 12.96 ± 2.08 ^d %
- IC50 (α-glucosidase): > 50 µM
- EC50 [2]: 22.1 ± 1.24 µM
- ABTS Assay ([3]; compounds at 50 μM): 0.99 ± 0.07 ^a mmol Trolox/L

SMILES: COc1cc(O)c2c(=O)c(O)c(-c3ccc(O)c(O)c3)oc2c1 [Compound 7, rhamnetin]
- FRAP Assay ([1]; compounds at 50 μM): 0.33 ± 0.04 ^b mmol Trolox/L
- Inhibitory Rate (%) (α-glucosidase): 85.13 ± 0.81 ^ab %
- IC50 (α-glucosidase): 3.04 µM
- EC50 [2]: 16.9 ± 0.67 µM
- ABTS Assay ([3]; compounds at 50 μM): 0.92 ± 0.07 ^a mmol Trolox/L

SMILES: O=c1c(O)c(-c2ccc(O)c(O)c2)oc2cc(O)cc(O)c12 [Compound 8, quercetin]
- FRAP Assay ([1]; compounds at 50 μM): 0.01 ± 0.00 ^c mmol Trolox/L
- Inhibitory Rate (%) (α-glucosidase): 1.27 ± 0.25 ^e %
- ABTS Assay ([3]; compounds at 50 μM): 1.05 ± 0.01 ^a mmol Trolox/L

SMILES: Cc1ccc2c(c1O)C(=O)c1cccc(O)c1C2=O [Compound 9, isozyganein]
- Inhibitory Rate (%) (α-glucosidase): 3.13 ± 4.06 ^e %
- IC50 (α-glucosidase): > 50 µM

SMILES: O=C1c2cc(CO)ccc2C(=O)c2c(O)cccc21 [Compound 10, 1-hydroxy-6-hydroxymethyl anthraquinone]
- FRAP Assay ([1]; compounds at 50 μM): 0.01 ± 0.01 ^c mmol Trolox/L
- Inhibitory Rate (%) (α-glucosidase): 1.77 ± 4.08 ^e %
- IC50 (α-glucosidase): > 50 µM
- ABTS Assay ([3]; compounds at 50 μM): 0.13± 0.00 ^c mmol Trolox/L

SMILES: O=C(O)C1OC(Oc2cc(-c3cc(=O)c4c(O)cc(O)cc4o3)ccc2O)C(O)C(O)C1O (stereo not shown) [Compound 11, luteolin-3′-O-glucuronide]
- FRAP Assay ([1]; compounds at 50 μM): 0.01 ± 0.00 ^c mmol Trolox/L
- Inhibitory Rate (%) (α-glucosidase): 4.57 ± 4.37 ^e %
- IC50 (α-glucosidase): > 50 µM
- ABTS Assay ([3]; compounds at 50 μM): 0.65 ± 0.00 ^b mmol Trolox/L

SMILES: COc1cc(C)cc2c1C(=O)c1c(O)cc(O)cc1C2=O [Compound 12, 1-O-methylemodin]
- Inhibitory Rate (%) (α-glucosidase): 53.04 ± 0.36 ^bc %
- ABTS Assay ([3]; compounds at 50 μM): 0.03 ± 0.00 ^d mmol Trolox/L

SMILES: Cc1cc2c(cc1O)C(=O)c1ccccc1C2=O [Compound 14, 3-hydroxy-2-methyl-9,10-anthraquinone]
- FRAP Assay ([1]; compounds at 50 μM): 0.03 ± 0.00 ^c mmol Trolox/L
- Inhibitory Rate (%) (α-glucosidase): 20.03 ± 2.44 ^c %
- IC50 (α-glucosidase): > 50 µM
- EC50 [2]: 25.8 ± 0.57 µM
- ABTS Assay ([3]; compounds at 50 μM): 0.09 ± 0.06 ^d mmol Trolox/L

SMILES: O=C(O)c1c[nH]c2ccccc12 [Compound 16, 1H-indole-3-carboxylic acid]
- FRAP Assay ([1]; compounds at 50 μM): 0.28 ± 0.01 ^b mmol Trolox/L
- Inhibitory Rate (%) (α-glucosidase): 12.53 ± 0.76 ^d %
- IC50 (α-glucosidase): > 50 µM
- EC50 [2]: 12.3 ± 0.53 µM
- ABTS Assay ([3]; compounds at 50 μM): 0.78 ± 0.01 ^a mmol Trolox/L

SMILES: COc1ccc(/C=C/C=O)cc1O [Compound 17, 3-hydroxy-4-methoxycinnamaladehyde]
- Inhibitory Rate (%) (α-glucosidase): 8.69 ± 1.94 ^de %
- IC50 (α-glucosidase): > 50 µM
- ABTS Assay ([3]; compounds at 50 μM): 0.80 ± 0.01 ^a mmol Trolox/L

SMILES: COc1cc(C(O)C(CO)Oc2c(OC)cc(/C=C/CO)cc2OC)cc(OC)c1O (stereo not drawn) [Compound 20, 7S,8R-syringylglycerol-8-O-4′-(synapyl alcohol) ether]
- FRAP Assay ([1]; compounds at 50 μM): 0.29 ± 0.00 ^b mmol Trolox/L
- Inhibitory Rate (%) (α-glucosidase): 40.30 ± 0.76 ^c %
- IC50 (α-glucosidase): > 50 µM
- EC50 [2]: 8.66 ± 0.43 µM
- ABTS Assay ([3]; compounds at 50 μM): 0.67 ± 0.01 ^b mmol Trolox/L

SMILES: COc1cc(O)c2c(c1O)C(=O)c1cc(C)ccc1C2=O [Compound 22, austrocortirubin]
- Inhibitory Rate (%) (α-glucosidase): 20.58 ± 1.30 ^c %
- IC50 (α-glucosidase): > 50 µM
- ABTS Assay ([3]; compounds at 50 μM): 0.32 ± 0.01 ^bc mmol Trolox/L
